Assay results reported in patent US20220218679A1, “NOVEL COMPOUNDS AND PHARMACEUTICAL COMPOSITIONS THEREOF FOR THE TREATMENT OF INFLAMMATORY DISORDERS” (Galapagos NV, priority 2019, published 2022).

Experiments:
[1] = test system: CL097 triggered TNFα release in human whole blood; assay: Ex vivo human TNFα release inhibition (human whole blood assay); type: cell-based; conditions: Homo sapiens, CL097 2 μg/mL, 3 h 30 min at 37° C.
Text: 4.10.1. Ex Vivo Human IFNα and TNFα Release Inhibition (Human Whole Blood Assay)
The aim of the assay is to evaluate the activity of compounds of the invention on the activated TLR/IRAK-4 pathway in an ex vivo human whole blood setting. Toll-like receptors (TLRs) are pattern recognition receptors that recognize a wide variety of microbial molecules, called pathogen-associated molecular patterns (PAMPs). Human TLR7 and TLR8 recognize imidazoquinoline compounds (e.g., CL097—CAS n #1026249-18-2) and single stranded RNAs as their natural ligands. Activation of TLRs leads to the production of several cytokines (e.g., IFNα, TNFα, IL-8, IL-6) by the TLR agonist-treated cells, whereas IRAK4 leads to the production of IFNα. Cytokine release is used as readout in this assay and represents a measure for the level of inhibition of the TLR/IRAK-4 pathway by the tested compound. It should be noted that in the context of the complete organism, other sources for these cytokines exist that are not dependent on the TLR/IRAK-4 pathway, such as e.g., macrophages (upon activation of the Fcγ receptor (Yan et al., 2012)) or T cells (upon activation of the T cell receptor (Brehm et al., 2005)).
4.10.1.1. Experimental Design
Blood was collected from healthy volunteers into lithium heparin tubes by venipuncture, then gently inverted several times to prevent clotting and incubated for at least 15 min at 37° C. on a rocking mixer shaker. Then, 100 μL of blood was dispensed into polypropylene 96-well microplate and pre-incubated in duplicate with 0.3% DMSO or test compound at different concentrations (from 30 to 0.01 μM, 3-fold dilutions to get 0.3% DMSO at the final) for 15 min at 37° C. After this pre-incubation, blood was triggered with CL097 (2 μg/mL from 1 mg/mL solution in water; InvivoGen, tlrl-c97) for 3 h 30 min at 37° C. Microtubes were centrifuged at 5000×g for 10 min at 4° C. and approximately 40 μL of plasma were collected into a polystyrene 96-well plate. Plasma could be analyzed freshly, within 30 min after triggering, or frozen at −80° C. Finally, the quantification of TNFα and IFNα were performed in the plasma using AlphaLISA Kit for TNFα and IFNα according to the manufacturer's instructions and read on the Ensight (PerkinElmer).
For each blood sample, the TNFα concentrations of the samples were determined from the fit. Data were then expressed a percentage of inhibition PIN for each replicate using the formula:
With mean TNFα with CL097=mean TNFα concentration of replicate samples triggered with CL097; TNFαsample1=TNFα concentration of sample 1; mean TNFα with vehicle=mean TNFα concentration of replicate samples treated with vehicle.
Curve fitting for pIC50 determination were generated using mean PIN±sem. Graphs and pIC50 calculations were derived using Prism 5.03 software (GraphPad).

Human Hepatocyte = assay: Metabolic stability in hepatocytes (human); type: in vitro ADME; conditions: 1 μM test compound, cryopreserved human hepatocytes
Experimental: 4.6. Metabolic Stability in Hepatocytes
The aim of this assay is to determine the metabolic stability of the compound in hepatocytes (cryopreserved) of different species. Low hepatocyte stability may result in the formation of unwanted metabolites, high clearance, and therefore is not desirable.
The decrease in parent was assessed by measuring the percentage remaining by LC-MS/MS analysis.
A 10 mM stock solution of test compound in DMSO was first diluted in DMSO to 3 mM, and then in modified Krebs-Henseleit buffer (Sigma, K3753) to 5 μM. This compound dilution was added to a suspension of pooled cryopreserved hepatocytes (BioreclamationIVT) at 37° C. under gentle shaking.
Final reaction conditions were: 1 μM of test compound, 0.03% DMSO, 0.5 million viable hepatocytes/mL, and 75 μL incubation volume.
Testosterone (1 μM) and 7-hydroxycoumarin (1 μM) were used, respectively as phase I and phase II metabolic reaction controls.
After 0, 10, 20, 45, 90, 120 and 180 min of incubation, the reaction was terminated with 225 μL of MeCN:MeOH (2:1) containing 100 ng/mL of diclofenac as analytical internal standard. Samples were mixed, centrifuged and the supernatant analyzed by LC-MS/MS.
The instrument responses (ratios of test compound and internal standard peak areas) were referenced to the zero time point samples (considered as 100%) in order to determine the percentage of compound remaining.
Plots of percentage compound remaining were used to determine the intrinsic clearance in the hepatocyte incubations using the following equations:
Scaled Clint [L/h/kg]=Clint[μL/min/10^6 cells]*#(10^6) cells/g liver*60*( 1/10^6) Scaled Clint unbound [L/h/kg]=Clint [L/h/kg]/Fu,inc where: fu,inc equals hepatocyte binding, derived from microsomal binding (fu,mic) by following equation: […]

## [2H]C([2H])([2H])Oc1cn2nc(CCC(C)(C)O)cc2cc1NC(=O)c1cccn(C2CC2)c1=O [Compound 24, 1-cyclopropyl-N-[2-(3-hydroxy-3-methylbutyl)-6-(trideuteriomethoxy)pyrazolo[1,5-a]pyridin-5-yl]-2-oxopyridine-3-carboxamide]
[1]
  IC50: 0.1 to 500 nM
Human Hepatocyte
  Human Hepatocyte stability (Perc. remaining at 90 min): 105 Perc.
